Results from US6528517B1, “Synthesis of quinobenzoxazine analogues with topoisomerase II and quadruplex interactions for use as antineoplastic agents” (Board of Regents, The University of Texas System, priority 1998, dated 2003).

Tests used:
[1] = target: T1, human topoisomerase II (Homo sapiens, UniProt P11388); assay: Decatenation assay (catenated to decatenated KDNA); type: biochemical; details: drug concentration that inhibits 50% of conversion of catenated to decatenated KDNA; read-out: topoisomerase II inhibition IC50
T1 construct: purchased TopoGEN, Inc
T1 sequence (P11388 whole entry): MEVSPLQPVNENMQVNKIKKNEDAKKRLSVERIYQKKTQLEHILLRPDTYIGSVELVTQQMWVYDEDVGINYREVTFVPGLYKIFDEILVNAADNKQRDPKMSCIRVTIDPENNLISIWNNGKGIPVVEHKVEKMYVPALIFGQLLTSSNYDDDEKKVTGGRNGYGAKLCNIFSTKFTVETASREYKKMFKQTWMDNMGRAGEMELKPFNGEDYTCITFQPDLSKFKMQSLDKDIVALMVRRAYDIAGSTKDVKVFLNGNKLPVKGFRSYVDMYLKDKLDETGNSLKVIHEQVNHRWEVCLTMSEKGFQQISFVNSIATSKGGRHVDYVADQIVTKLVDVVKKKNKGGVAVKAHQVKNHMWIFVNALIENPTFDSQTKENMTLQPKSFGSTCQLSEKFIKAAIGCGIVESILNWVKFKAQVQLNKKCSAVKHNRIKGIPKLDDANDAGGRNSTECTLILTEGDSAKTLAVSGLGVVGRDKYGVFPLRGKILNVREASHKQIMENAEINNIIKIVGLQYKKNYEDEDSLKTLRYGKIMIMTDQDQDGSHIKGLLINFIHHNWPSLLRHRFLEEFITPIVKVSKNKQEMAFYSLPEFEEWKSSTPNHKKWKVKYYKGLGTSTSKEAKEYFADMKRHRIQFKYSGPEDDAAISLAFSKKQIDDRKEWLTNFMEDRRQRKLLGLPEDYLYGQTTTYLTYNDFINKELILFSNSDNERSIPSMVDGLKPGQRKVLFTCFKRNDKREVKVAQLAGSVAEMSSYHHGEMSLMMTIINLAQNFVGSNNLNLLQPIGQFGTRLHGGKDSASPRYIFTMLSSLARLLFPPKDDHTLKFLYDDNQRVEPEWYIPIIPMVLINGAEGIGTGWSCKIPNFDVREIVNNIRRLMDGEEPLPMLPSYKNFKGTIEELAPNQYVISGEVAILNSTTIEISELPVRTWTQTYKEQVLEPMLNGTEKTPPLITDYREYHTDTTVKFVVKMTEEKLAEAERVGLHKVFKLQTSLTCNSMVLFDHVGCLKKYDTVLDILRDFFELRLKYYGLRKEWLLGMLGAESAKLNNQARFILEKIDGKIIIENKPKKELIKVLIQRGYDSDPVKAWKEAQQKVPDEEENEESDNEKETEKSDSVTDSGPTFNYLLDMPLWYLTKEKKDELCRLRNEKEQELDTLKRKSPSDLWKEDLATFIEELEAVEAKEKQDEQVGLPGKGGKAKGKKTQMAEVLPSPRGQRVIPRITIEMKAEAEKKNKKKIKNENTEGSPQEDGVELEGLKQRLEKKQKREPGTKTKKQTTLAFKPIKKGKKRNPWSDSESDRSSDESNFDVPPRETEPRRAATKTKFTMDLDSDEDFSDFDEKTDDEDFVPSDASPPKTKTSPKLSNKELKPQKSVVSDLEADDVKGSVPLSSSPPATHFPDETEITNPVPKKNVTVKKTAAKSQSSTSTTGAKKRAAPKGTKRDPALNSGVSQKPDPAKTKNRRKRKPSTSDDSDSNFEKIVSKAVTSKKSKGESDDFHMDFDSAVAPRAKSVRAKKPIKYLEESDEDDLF
Procedure: Kinetoplast DNA (KDNA), human topoisomerase II (170 KDa form), and DNA Unwinding Kit including supercoiled pHOT1 DNA, relaxed DNA marker, buffers, and human topoisomerase I were purchased from TopoGEN, Inc. Agarose was purchased from Fisher. Quinobenzoxazine A-62176 (S-enantiomer) was provided by Abbott Laboratories or prepared by published procedure (Chu and Maleczka, Jr., 1987).
0.25 μg of KDNA was incubated with various concentrations of the quinobenzoxazines in a 20-μl reaction mixture containing 50 mM Tris-HCl (pH 8), 120 mM KCl, 10 mM MgCl2, and 0.5 mM each of ATP, dithiothreitol, and […] BSA for 10 min. Two units of human topoisomerase II (170 KDa form) were added to the mixture, which was then incubated at 37° C. for 30 min. The reaction was terminated with 0.1 volume of stop buffer (5% sarkosyl, 0.025% bromophenol blue, and 50% glycerol). The decatenation products were analyzed on 1% agarose gels run with 0.5 μg/ml ethidium bromide. The gels were scanned by FluoroImager and analyzed by ImageQuaNT software (Molecular Dynamics).

[2] = system: B16 melanoma; assay: Cancer cell growth inhibition assay (MTT); type: cell-based, murine
Procedure: (§1) Exponentially growing cells in 0.1 ml medium were seeded on Day 0 in 96-well microtiter plates. On Day 1, 0.1-ml aliquots of medium containing graded concentrations test agent were added in duplicate to the cell plates. After incubation at 37° C. in a humidified incubator, the plates were centrifuged briefly (1-2 min at 1000 rpm), and 100 μl of the growth medium was removed. Cell cultures were incubated with 50 μl of 3-(4,5-dimethylthiazyl-2-yl)-2,5-diphenyltetrazolium bromide MTT, 1 mg/ml in Dubecco's PBS for 4 h at 37° C. The resulting purple formazan precipitate was solubilized with 200 μl of 0.4 N HCl in isopropyl alcohol. Absorbance was quantitated using a Bio-Rad Model 3550 microplate reader at a test wavelength of 570 nm and a reference wavelength of 630 nm. Absorbance values were transferred to a 486 personal computer, and the IC50 values were determined using the computer program EZ-ED50 (Chen et al., 1993).

[3] = system: Raji lymphoma; assay: Cancer cell growth inhibition assay (MTT); type: cell-based, human
Procedure: as §1

[4] = system: MDA-231 breast; assay: Cancer cell growth inhibition assay (MTT); type: cell-based, human
Procedure: as §1

[5] = system: HT-29 colon; assay: Cancer cell growth inhibition assay (MTT); type: cell-based, human
Procedure: as §1

[6] = system: H226 non-small-cell lung; assay: Cancer cell growth inhibition assay (MTT); type: cell-based, human
Procedure: as §1

[7] = system: DU-145 prostate; assay: Cancer cell growth inhibition assay (MTT); type: cell-based, human
Procedure: as §1

[8] = system: human telomerase; assay: Telomerase inhibition assay (HeLa cell extract); type: biochemical
Procedure: The assay used crude HeLa cell extract as the source of human telomerase. It measures the incorporation of ^32P-labeled dGTP into the primer extension of human telomere synthesis (Sun et al., 1998). […] Specific examples of such dual-acting compounds include compounds 2b and 2a (FIG. 3).
The assay was performed by using 5′-end biotinylated d[TTAGGG]3 as the telomere primer. Reaction mixtures (20 μl) containing 5 μl cell lysate (S-100), 50 mM Tris-OAc (pH 8.5), 50 mM K-OAc, 1 mM MgCl2, 5 mM BME, 1 mM spermidine, 1 μM telomere primer, 1.5 μM [α-^32P]-dGTP (800 Ci/mmol), 1 mM dATP, and 1 mM dTTP were incubated at 37° C. for 1 hr, and the reactions were terminated by adding 20 μl of […] streptavidin-coated Dynabeads suspension containing 10 mM Tris-HCl (pH 7.5), 1 mM EDTA, 2M KCl, and a 500 cpm biotinylated internal control. Streptavidin-coated Dynabeads bind selectively to the desired target (5′-biotinylated primer), forming a magnetic bead-targeted complex. The complex was separated from the suspension using a Dynal MPC magnet and washed several times with 2×SSC buffer containing 0.1% SDS to eliminate [α-^32P]-dGTP background. Telomerase reaction products were separated from the magnetic beads by protein denaturation with 5.7 M guanidine-HCl at 90° C. for 30 min. After ethanol precipitation, products were resolved on denaturating 10% polyacrylamide gel.

[9] = system: supercoiled pHOT1 DNA; assay: DNA unwinding assay; type: biochemical; details: concentration shifting topoisomers to the middle position between relaxed and supercoiled bands
Procedure: A 22 μl mixture of 0.25 μg of supercoiled pHOT1 DNA, 5 units of topoisomerase I in topoisomerase I buffer (provided with the kit) was incubated at 37° C. for 30 min. Two μl of various concentrations of drug was added, and the incubation was continued for another 30 min. The reactions were terminated by addition of SDS to 1%. Proteinase K was added to the reaction mixtures to ca. 50 μg/ml, and the reaction mixtures were incubated for 15-20 min at 56° C. After adding 0.1 volume of 10×gel loading buffer, the reaction mixtures were extracted with an equal volume of CIA (Chloroform:isoamyl Alcohol; 24:1). The samples were loaded on an 1% agarous gel that was cast in TPE buffer (36 mM Tris-HCl, pH 7.8, 1 mM EDTA, 30 mM NaH2PO4) and 0.2 μg/ml Chloroquine. The gel was run in TPE buffer at room temperature at 10 volts for 20 h, destained in water for 15 min, stained in 0.05 μg/ml ethidium bromide for 15 min, and destained again in water for 15 min. The gel was then photographed, scanned by FluoroImager, and analyzed by ImageQuaNT software (Molecular Dynamics).

[10] = system: human DNA G-quadruplex d(TTAGGG)4; assay: NMR imino proton titration with G-quadruplex DNA; type: binding; details: overall stoichometry 1:1
Procedure: (C) Compounds may be selected for their ability to interact with human DNA G-quadruplex as indicated by NMR spectroscopy. The imino proton spectrum (9-12 ppm) of a solution of d(TTAGGG)4 in D2O/H2O (10:90) was determined at 500 MHz. Aliquot of N,N′-bis(2-piperdinoethyl)-3,4,9,10-perylenetetracarboxylic acid diimide were added and the imino proton spectrum recorded.

| SMILES | IC50 [1] | IC50 [2] | IC50 [3] | IC50 [4] | IC50 [5] | IC50 [6] | IC50 [7] | telomerase inhibition (qualitative) [8] | DNA unwinding concn [9] | upfield shift of G6 imino resonance [10] |
| --- | --- | --- | --- | --- | --- | --- | --- | --- | --- | --- |
| NC1CCN(c2c(F)cc3c(=O)c(C(=O)O)cn4c3c2Oc2ccc3ccccc3c2-4)C1 (racemic) [Compound 1a, 1-(3-Aminopyrrolidin-1-yl)-2-fluoro-4-oxo-4H-pyrido[3,2,1-k,l]-benzo[h]-phenoxazine-5-carboxylic Acid] | 0.77 µM | 0.44 ± 0.06 µM | 0.086 ± 0.006 µM | 0.15 ± 0.04 µM | 0.18 ± 0.01 µM | 0.14 ± 0.01 µM | 0.2 ± 0.03 µM |  |  |  |
| Cl.NC1CCN(c2c(F)cc3c(=O)c(C(=O)O)cn4c3c2Oc2c-4ccc3ccccc23)C1 (racemic) [Compound 2a, 1-(3-Aminopyrrolidin-1-yl)-2-fluoro-4-oxo-4H-pyrido[3,2,1-k,l]-benzo[f]-phenoxazine-5-carboxylic Acid] | 0.55 µM | 0.04 ± 0.004 µM | 0.018 ± 0.001 µM | 0.027 ± 0.002 µM | 0.03 ± 0.003 µM | 0.022 ± 0.002 µM | 0.017 ± 0.007 µM | dual-acting |  |  |
| NC1CCN(c2c(F)cc3c(=O)c(C(=O)O)cn4c3c2Oc2cc3ccccc3cc2-4)C1 (racemic) [Compound 3a, 1-(3-Aminopyrrolidin-1-yl)-2-fluoro-4-oxo-4H-pyrido[3,2,1-k,l]-benzo[g]-phenoxazine-5-carboxylic Acid] | 0.77 µM | 0.1 ± 0.01 µM | 0.038 ± 0.006 µM | 0.023 ± 0.004 µM | 0.028 ± 0.005 µM | 0.004 ± 0.002 µM | 0.025 ± 0.009 µM |  |  |  |
| Cl.NC1CCN(c2c(F)cc3c(=O)c(C(=O)O)cn4c3c2Oc2ccc3ccccc3c2-4)C1 (stereo not drawn) [Compound 1b, 1-(3-Aminopyrrolidin-1-yl)-2-fluoro-4-oxo-4H-pyrido[3,2,1-k,l]-benzo[h]-phenoxazine-5-carboxylic Acid] | 1.22 µM | 0.68 ± 0.05 µM | 0.16 ± 0.07 µM | 0.35 ± 0.06 µM | 0.36 ± 0.04 µM | 2.4 ± 0.1 µM | 0.36 ± 0.12 µM |  | 35 µM |  |
| Cl.NC1CCN(c2c(F)cc3c(=O)c(C(=O)O)cn4c3c2Oc2ccc3ccccc3c2-4)C1 (stereo not drawn) [Compound 1c, 1-(3-Aminopyrrolidin-1-yl)-2-fluoro-4-oxo-4H-pyrido[3,2,1-k,l]-benzo[h]-phenoxazine-5-carboxylic Acid] | 0.72 µM | 0.13 ± 0.02 µM | 0.082 ± 0.008 µM | 0.19 ± 0.04 µM | 0.27 ± 0.04 µM | 0.13 ± 0.01 µM | 0.14 ± 0.01 µM |  | 19 µM |  |
| Cl.NC1CCN(c2c(F)cc3c(=O)c(C(=O)O)cn4c3c2Oc2c-4ccc3ccccc23)C1 (stereo not drawn) [Compound 2c, 1-(3-Aminopyrrolidin-1-yl)-2-fluoro-4-oxo-4H-pyrido[3,2,1-k,l]-benzo[f]-phenoxazine-5-carboxylic Acid] | 0.49 µM | 0.18 ± 0.02 µM | 0.02 ± 0.004 µM | 0.084 ± 0.007 µM | 0.051 ± 0.006 µM | 0.027 ± 0.004 µM | 0.064 ± 0.007 µM |  | 10 µM |  |
| Cl.NC1CCN(c2c(F)cc3c(=O)c(C(=O)O)cn4c3c2Oc2cc3ccccc3cc2-4)C1 (stereo not drawn) [Compound 3b, 1-(3-Aminopyrrolidin-1-yl)-2-fluoro-4-oxo-4H-pyrido[3,2,1-k,l]-benzo[g]-phenoxazine-5-carboxylic Acid] | 0.42 µM | 0.14 ± 0.015 µM | 0.032 ± 0.005 µM | 0.021 ± 0.002 µM | 0.022 ± 0.003 µM | 0.022 ± 0.015 µM | 0.048 ± 0.008 µM |  | 15 µM |  |
| Cl.NC1CCN(c2c(F)cc3c(=O)c(C(=O)O)cn4c3c2Oc2cc3ccccc3cc2-4)C1 (stereo not drawn) [Compound 3c, 1-(3-Aminopyrrolidin-1-yl)-2-fluoro-4-oxo-4H-pyrido[3,2,1-k,l]-benzo[g]-phenoxazine-5-carboxylic Acid] | 0.44 µM | 0.02 ± 0.006 µM | 0.029 ± 0.005 µM | 0.01 ± 0.002 µM | 0.023 ± 0.003 µM | 0.014 ± 0.002 µM | 0.03 ± 0.006 µM |  | 13 µM |  |
| O=C(O)c1cn2c3c(c(N4CCNCC4)c(F)cc3c1=O)Oc1ccc3ccccc3c1-2 [Compound 4, 1-(Piperazin-1-yl)-2-fluoro-4-oxo-4H-pyrido[3,2,1-k,l]-benzo[h]phenoxazine-5-carboxylic Acid] | 9.6 µM | 2.1 ± 0.3 µM | 0.8 ± 0.05 µM | 2.2 ± 0.3 µM | 2 ± 0.2 µM | 2.1 ± 0.2 µM | 0.84 ± 0.27 µM |  | >100 µM |  |
| O=C(O)c1cn2c3c(c(N4CCNCC4)c(F)cc3c1=O)Oc1c-2ccc2ccccc12 [Compound 5, 1-(Piperazin-1-yl)-2-fluoro-4-oxo-4H-pyrido[3,2,1-k,l]-benzo[f]phenoxazine-5-carboxylic Acid] | 1.84 µM | 0.65 ± 0.06 µM | 0.21 ± 0.04 µM | 0.38 ± 0.05 µM | 0.36 ± 0.09 µM | 0.2 ± 0.03 µM | 0.14 ± 0.04 µM |  | >100 µM |  |
| O=C(O)c1cn2c3c(c(N4CCNCC4)c(F)cc3c1=O)Oc1cc3ccccc3cc1-2 [Compound 6, 1-(Piperazin-1-yl)-2-fluoro-4-oxo-4H-pyrido[3,2,1-k,l]-benzo[g]phenoxazine-5-carboxylic Acid] | 0.64 µM | 0.045 ± 0.048 µM | 0.0072 ± 0.0076 µM | > 1000 µM | 6.8 ± 1.8 µM | > 100 µM | 0.075 ± 0.032 µM |  | >100 µM |  |
| O=C1c2ccc3c4ccc5c6c(ccc(c7ccc(c2c37)C(=O)N1CCN1CCCCC1)c64)C(=O)N(CCN1CCCCC1)C5=O [N,N′-bis(2-piperdinoethyl)-3,4,9,10-perylenetetracarboxylic acid diimide] |  |  |  |  |  |  |  |  |  | > 0.2 ppm |
